# From publication PMC3281083, “Impact of the Herbal Medicine Sophora flavescens on the Oral Pharmacokinetics of Indinavir in Rats: The Involvement of CYP3A and P-Glycoprotein” (PLoS ONE, 2012)
# Where two headings read alike, the source gives them in different places.
# Key:
# [1] = Multiple-dose oral pharmacokinetics of indinavir (plasma) with co-administered Sophora preparations; type: in vivo, Male Wistar rats; settings: male, Wistar, rat, 40 mg/kg; for AUC(0-inf) / CL/F / Cmax / Tmax: po; for AUC(0-inf): read-out: AUC0-∞ of indinavir
# Experimental: Thirty rats were randomly designated as vehicle control, low-dose and high-dose Sophora treatment groups (ten rats in each group). A separate experiment was performed using eighteen rats designated as vehicle control, oxymatrine capsule and Sophora EA fraction groups (six rats in each group). […] Indinavir from […]® capsule (Merck & CO. Inc., Whitehouse Station, NJ, USA) was dissolved in 50 mM citric acid, and the oxymatrine capsule contents were dissolved in distilled water. […] The treatments were given twice a day (9 a.m. and 7 p.m.) for 7 consecutive days. The dosages were designed on the basis of clinical doses in human. The daily dose of S. flavescens recommended by the Chinese Pharmacopoeia is 4.5-9 g of raw herb per day. […] Taking the low and high ends of these dose ranges, and using a conversion based on the body-surface-area ratio between rats and human, an animal dose range of 0.45-1.8 g/kg/day (raw herb equivalent) was estimated for experimental rats. […] Plasma was obtained by centrifugation at 7,000× g for 15 min at 4°C and frozen at -80°C prior to analysis. […] Organ tissues, including liver and intestine, were isolated, rinsed with saline, blotted dried, snap-frozen in liquid nitrogen, and stored at -80°C until use. […] Midazolam was used as the internal standard. […] The residues were reconstituted with 200 μL of methanol-water (v/v, 1∶1) solution. The faeces were homogenized in about 4-fold volume of distilled water. The homogenates were extracted with equal volume of acetonitrile. After centrifugation, 1 mL of the supernatant was transferred to a glass tube, and was subsequently subjected to addition of midazolam, alkalization, extraction with ethyl acetate, drying and reconstitution. All reconstituted samples (60 μL) were separated on a Prevail C18 column (250 mm×4.6 mm […]) by an Agilent 1100 HPLC system (Agilent Technologies, Santa Clara, CA, USA). The flow rate was 0.8 mL/min. […] The effluent was introduced to APCI-MS (Agilent 1100 series LC/MSD Trap SL system, Santa Clara, CA, USA) with positive detection mode. […] Extract ion chromatograms at m/z 614 (indinavir) and m/z 326 (midazolam) were used for quantification (Figure S1). Quantification of indinavir was performed on six levels of standards in blank plasma or faeces homogenate. […] The recovery of the analyte ranged from 80% to 90%. […] The area under the plasma concentration-time curves from zero to infinity (AUC0-∞) was calculated by the trapezoidal rules. Clearance (CL) was calculated by the equation (F×Dose)/AUC0-∞, where F is the fraction of dose available in the systemic circulation. Peak plasma concentration (Cmax) and the time when it occurred (T max) were derived directly from the curves. Statistical differences were determined by unpaired Student's t test or one-way analysis of variance (one-way ANOVA) followed by Dunnett's post test. All tests were two-tailed and the significance was set at P<0.05.
# [2] = parameters: method as in PMID 10604964, PMID 10497146; settings: rats; cited from earlier work
# [3] = parameters: method as in PMID 15771225; settings: low solubility/high permeability/extensive metabolism; cited from earlier work
# [4] = indinavir 40 mg/kg orally, multiple dosage, with EA fraction 0.164 g/kg/day, mean ± S.E.M.
# [5] = indinavir 40 mg/kg orally, multiple dosage, with Oxymatrine (capsule) 90 mg/kg/day, mean ± S.E.M.
# [6] = indinavir 40 mg/kg orally, multiple dosage, with Sophora extract 0.316 g/kg/day, mean ± S.E.M.
# [7] = indinavir 40 mg/kg orally, multiple dosage, with Sophora extract 1.26 g/kg/day, mean ± S.E.M.
# [8] = indinavir 40 mg/kg orally, multiple dosage, with vehicle control, mean ± S.E.M.
compound,measurement,setting,value
CC(C)(C)NC(=O)[C@@H]1CN(Cc2cccnc2)CCN1C[C@@H](O)C[C@@H](Cc1ccccc1)C(=O)N[C@H]1c2ccccc2C[C@H]1O [indinavir],C0,"[1]; oral, day 8, before last indinavir dose, detectable, below limit of quantification, read-out: Plasma indinavir concentration at time zero",< 50 ng/mL
same,AUC(0-inf),"[1]; indinavir 40 mg/kg orally twice a day for 7 days, last dose day 8, with vehicle control (1.5% Tween 80), mean ± S.E.M.",16100 ± 990 ng·h/mL
same,CL/F,[1]; [4],57.6 mL/min/kg
same,Cmax,[1]; [4],8410 ± 860 ng/mL
same,AUC(0-inf),[1]; [4],12300 ± 1310 ng·h/mL
same,Tmax,"[1]; indinavir 40 mg/kg orally, multiple dosage, with EA fraction 0.164 g/kg/day, mean ± S.E.M., read-out: T max of indinavir",40.2 ± 9 min
same,CL/F,[1]; [5],159 mL/min/kg
same,Cmax,[1]; [5],4970 ± 810 ng/mL
same,AUC(0-inf),[1]; [5],5290 ± 1110 ng·h/mL
same,Tmax,"[1]; indinavir 40 mg/kg orally, multiple dosage, with Oxymatrine (capsule) 90 mg/kg/day, mean ± S.E.M., read-out: T max of indinavir",25.2 ± 7.2 min
same,CL/F,[1]; [6],101 mL/min/kg
same,Cmax,[1]; [6],7170 ± 690 ng/mL
same,AUC(0-inf),[1]; [6],7230 ± 870 ng·h/mL
same,Tmax,"[1]; indinavir 40 mg/kg orally, multiple dosage, with Sophora extract 0.316 g/kg/day, mean ± S.E.M., read-out: T max of indinavir",37.2 ± 7.2 min
same,CL/F,[1]; [7],316 mL/min/kg
same,Cmax,[1]; [7],3090 ± 1080 ng/mL
same,AUC(0-inf),[1]; [7],2780 ± 610 ng·h/mL
same,Tmax,"[1]; indinavir 40 mg/kg orally, multiple dosage, with Sophora extract 1.26 g/kg/day, mean ± S.E.M., read-out: T max of indinavir",30 ± 11.4 min
same,CL/F,[1]; [8],42.8 mL/min/kg
same,Cmax,[1]; [8],11500 ± 670 ng/mL
same,Tmax,"[1]; indinavir 40 mg/kg orally, multiple dosage, with vehicle control, mean ± S.E.M., read-out: T max of indinavir",30 ± 6 min
same,Tmax,"[1]; oral, read-out: T max of indinavir determined in our study",30 to 37 min
same,Oral bioavailability,[2],26%
same,Metabolic (drug disposition) class,[3],Class 2
